Results: article PMC6185959 (2018)

Assays:
[1] = tested on: Pu22 (MYC G4) (DNA, G4) TGAGGGTGGGGAGGGTGGGGAA; assay: WaterLOGSY NMR; conditions: 50 mM KCl, Tris-d11 pH 6.4, 20 °C, 5 µM oligo, 100 µM compound
[2] = tested on: Alexa Fluor 647-Pu27 (MYC G4) (DNA, G4) TGGGGAGGGTGGGGAGGGTGGGGAAGG; assay: fluorescence intensity titration; conditions: 50 mM KCl, 25 mM Tris pH 6.4, 2-3% DMSO, RT, 50 nM oligo, 2:1 model
[3] = tested on: 5'-biotin Pu27 (MYC G4) (DNA, G4) TGGGGAGGGTGGGGAGGGTGGGGAAGG; assay: SPR; conditions: 30 mM KCl; 10 mM Tris pH 6.4, 3% DMSO, 0.01% Tween-20; 1:1 Langmuir, highest affinity site
[4] = tested on: Pu22 (MYC G4) (DNA, G4) TGAGGGTGGGGAGGGTGGGGAA; assay: CD melting; conditions: 30 mM KCl; 10 mM Tris pH 6.3, 1% DMSO; 10 µM oligo, 40 µM compound; Table S2 prints 7.6 ± 0.5
[5] = tested on: Pu27 (MYC G4) (DNA, G4) TGGGGAGGGTGGGGAGGGTGGGGAAGG; assay: CD melting; conditions: 30 mM KCl; 10 mM Tris pH 6.3, 1% DMSO; 10 µM oligo, 40 µM compound
[6] = tested on: 131 (DNA, G4) TGAGGGTGGGTAAGGGTGGGTAA; assay: CD melting; conditions: 30 mM KCl; 10 mM Tris pH 6.3, 1% DMSO; 10 µM oligo, 40 µM compound
[7] = tested on: 122 (DNA, G4) TGAGGGTGGGTAGGGTAGGGTAA; assay: CD melting; conditions: 30 mM KCl; 10 mM Tris pH 6.3, 1% DMSO; 10 µM oligo, 40 µM compound
[8] = tested on: 221 (DNA, G4) TGAGGGTAGGGTAGGGTGGGTAA; assay: CD melting; conditions: 30 mM KCl; 10 mM Tris pH 6.3, 1% DMSO; 10 µM oligo, 40 µM compound
[9] = tested on: 333 (DNA, G4) TGAGGGTTAGGGTAAGGGTTAGGGTAA; assay: CD melting; conditions: 30 mM KCl; 10 mM Tris pH 6.3, 1% DMSO; 10 µM oligo, 40 µM compound
[10] = tested on: GAT Tail (A25T) (DNA, G4) TGAGGGTGGGGAGGGTGGGGAT; assay: CD melting; conditions: 30 mM KCl; 10 mM Tris pH 6.3, 1% DMSO; 10 µM oligo, 40 µM compound
[11] = tested on: no tail (DNA, G4) GGGTGGGGAGGGTGGG; assay: CD melting; conditions: 30 mM KCl; 10 mM Tris pH 6.3, 1% DMSO; 10 µM oligo, 40 µM compound
[12] = tested on: BCl2 (DNA, G4) AGGGGCGGGCGCGGGAGGAAGGGGGCGGGA; assay: CD melting; conditions: 30 mM KCl; 10 mM Tris pH 6.3, 1% DMSO; 10 µM oligo, 40 µM compound
[13] = tested on: HIF1a (DNA, G4) GGGAGGGAGAGGGGGCGGG; assay: CD melting; conditions: 30 mM KCl; 10 mM Tris pH 6.3, 1% DMSO; 10 µM oligo, 40 µM compound
[14] = tested on: MYB (DNA, G4) GGAGGAGGAGGTCACGGAGGAGGAGGAGAAGGAGGAGGAGGA; assay: CD melting; conditions: 30 mM KCl; 10 mM Tris pH 6.3, 1% DMSO; 10 µM oligo, 40 µM compound
[15] = tested on: dsDNA (DNA, duplex) CAATCGGATCGAATTCGATCCGATTG; assay: CD melting; conditions: 30 mM KCl; 10 mM Tris pH 6.3, 1% DMSO; 10 µM oligo, 40 µM compound
[16] = tested on: MYC Pu22 G14T/G23T (NMR, 121) (DNA, G4) TGAGGGTGGGTAGGGTGGGTAA; assay: solution NMR structure; conditions: 50 mM KCl; 25 mM Tris-d11 pH 6.4, 25 °C; twofold excess compound; 5' and 3' tetrads
[17] = tested on: MYC Pu22 G14T/G23T (NMR, 121) (DNA, G4) TGAGGGTGGGTAGGGTGGGTAA; assay: 1H NMR titration, imino shifts; conditions: 50 mM KCl; 25 mM Tris-d11 pH 6.4, 10% DMSO-d6, 25 °C; overall KD, non-cooperative fit
[18] = tested on: Alexafluor647-KRAS (DNA, G4) AGGGCGGTGTGGGAAGAGGGAAGAGGGGGAGGCAG; assay: fluorescence intensity titration; conditions: 50 mM KCl; 25 mM Tris pH 6.4, 2-3% DMSO, RT; 50 nM oligo; 2:1 model
[19] = tested on: Alexafluor647-BCL2 (DNA, G4) AGGGGCGGGCGCGGGAGGAAGGGGGCGGGA; assay: fluorescence intensity titration; conditions: 50 mM KCl; 25 mM Tris pH 6.4, 2-3% DMSO, RT; 50 nM oligo; 2:1 model
[20] = tested on: Alexafluor647-Telomeric DNA (DNA, G4) TTAGGGTTAGGGTTAGGGTTAGGGTTA; assay: fluorescence intensity titration; conditions: 50 mM KCl; 25 mM Tris pH 6.4, 2-3% DMSO, RT; 50 nM oligo; 2:1 model
[21] = tested on: Alexafluor647-VEGF (DNA, G4) CGGGGCGGGCCGGGGGCGGGGT; assay: fluorescence intensity titration; conditions: 50 mM KCl; 25 mM Tris pH 6.4, 2-3% DMSO, RT; 50 nM oligo; 2:1 model
[22] = tested on: Alexafluor647-NRAS (RNA, G4) UGUGGGAGGGGCGGGUCUGGG; assay: fluorescence intensity titration; conditions: 50 mM KCl; 25 mM Tris pH 6.4, 2-3% DMSO, RT; 50 nM oligo; 2:1 model

With `CN[C@H](C(=O)O)C(C)C` the binding ([1]; internal non-binding control) was “no”.
With `Cc1ccc(NC(=O)c2c(C)oc3ccc(O)c(CN4CCCCCC4)c23)cc1` the KD [2] was 0.0232 ± 0.0076 mM.
With `Cc1oc2ccc(O)c(CN3CCCCCC3)c2c1C(=O)Nc1ccc(C(F)(F)F)cc1` the KD [3] was 1.4 ± 1.2 µM, the ΔTm [4] was 7.4 ± 0.5 °C and the ΔTm [5] was 7.5 ± 2.0 °C. For the same molecule, the ΔTm [6] was 4.6 ± 0.3 °C, the ΔTm [7] was 7.0 ± 0.3 °C and the ΔTm [8] was 4.0 ± 1.0 °C. The ΔTm [9] was 0.0 ± 1.0 °C, the ΔTm [10] was 4.5 ± 0.8 °C and the ΔTm [11] was 4.3 ± 1.7 °C. It also gave a ΔTm [12] of 4.2 ± 0.4 °C, a ΔTm [13] of 0.2 ± 1.1 °C and a ΔTm [14] of 1.5 ± 0.3 °C. For the same molecule, the ΔTm [15] was 0.6 ± 0.7 °C, the binding [1] was “yes” and the binding [16] was “yes”. It also gave a KD [17] of 0.0165 ± 0.0011 mM, a KD ([2]; Table S1 prints 9.1 ± 1.1) of 0.0094 ± 0.0011 mM and a KD [18] of 0.0442 ± 0.0038 mM. It also gave a KD [19] of 0.0173 ± 0.0044 mM, a KD [20] of 0.0403 ± 0.01 mM and a KD [21] of 0.0183 ± 0.0034 mM. For the same molecule, the binding [22] was “weak”.
